Results: EP2292587A1, “PHARMACEUTICAL COMPOSITION FOR INHIBITING THE TRANSCRIPTION FACTOR INDUCIBLE BY HYPOXIA, MODULATORS OF PATHOLOGICAL PROCESSES OF ANGIOGENESIS, ONCOGENESIS, INFLAMMATION, APOPTOSIS, AND CELLULAR THERAPY” (Fundacion De La Comunidad Valenciana Centro De …, priority 2008, dated 2009)

Tests used:
HT29 = test: anchorage-independent growth in semisolid agar, HT29; assay type: cell-based, human; conditions: 0.5 µM, 10 days, versus DMSO, p ≤ 0.005
Description: Anchorage-independent cell growth is a study which allows predicting the tumorigenicity of tumor cells in vivo. Anchorage-independent cell growth studies were performed for HT29, HCT116/p53^+/+ and HCT116/p53^-/- cells in semisolid agar which were monitored daily to determine the efficiency of the formation of colonies in the presence of carrier (DMSO) or FM19G11. To that end, the starting material was 75 x 10^3 cells suspended in semisolid agar, which were maintained until 10 days later. […] A reduction of the formation of colonies in the HCT116/p53^-/- cells is not observed. The growth of colonies was quantified in three independent experiments by means of counting colonies in the 4 x magnification optical field of an inverted optical microscope.

[1] = system: medaka (Oryzias latipes) embryos; test: toxicity on medaka embryos; assay type: in vivo
Description: In the first place, for the zebrafish embryos, various experiments were performed with 10, 6 and 4 embryos per well in a volume of 100 microl, in early (between 1 and 8) and late (more than 20) stages of 1 x Yamamoto buffer, culturing the embryos at 26°C for 24 hours, and the compound FM19G11 was subsequently added at concentrations of 10 microM and 50 microM with negative controls without additives to analyze the endogenous mortality of the embryos and with 1% and 5% DMSO (solvent of the compound) to analyze the mortality of the solvent. In all the cases the solvent induced a high lethality between 60% and 90%.
The same experiments were performed using medaka embryos for which DMSO has not lethal effects at concentrations less than 5%. Six embryos per well, a final volume of 100 µl and independent experiments with embryos in blastula and neurula stages were used.
To prevent the possibility that FM19G11 may not be traversing the protective layer of the embryo (chorion), the compound at a concentration of 0.5 mM was microinjected into the chorionic space (between the embryo and the chorion). Experiment 1: n=15, 20% induced mortality, DMSO control = 0%. The result was the same, no anomaly being observed in the development of the embryo, nor any effect on the viability of the injected embryos. The images of Figure 19 show medaka embryos subjected to the treatment with FM19G11 at 50 microM for 4 days (A) 10 medaka embryos in a well of a multi-well plate; B and C, photos of embryos treated with 50 microM FM19G11 for 1 day; and D a photo of a medaka embryo which was not treated with the compound.

acetyltransferase p300 = target: T1, acetyltransferase p300 (Mus musculus, UniProt B2RWS6); test: HAT Colorimetric Assay after anti-p300 immunoprecipitation, C17.2 cells; assay type: cell-based; conditions: regardless of the percentage of oxygen
T1 construct: endogenous in cells; host or cells: C17.2 mouse neural stem cells
T1 sequence (B2RWS6 whole entry): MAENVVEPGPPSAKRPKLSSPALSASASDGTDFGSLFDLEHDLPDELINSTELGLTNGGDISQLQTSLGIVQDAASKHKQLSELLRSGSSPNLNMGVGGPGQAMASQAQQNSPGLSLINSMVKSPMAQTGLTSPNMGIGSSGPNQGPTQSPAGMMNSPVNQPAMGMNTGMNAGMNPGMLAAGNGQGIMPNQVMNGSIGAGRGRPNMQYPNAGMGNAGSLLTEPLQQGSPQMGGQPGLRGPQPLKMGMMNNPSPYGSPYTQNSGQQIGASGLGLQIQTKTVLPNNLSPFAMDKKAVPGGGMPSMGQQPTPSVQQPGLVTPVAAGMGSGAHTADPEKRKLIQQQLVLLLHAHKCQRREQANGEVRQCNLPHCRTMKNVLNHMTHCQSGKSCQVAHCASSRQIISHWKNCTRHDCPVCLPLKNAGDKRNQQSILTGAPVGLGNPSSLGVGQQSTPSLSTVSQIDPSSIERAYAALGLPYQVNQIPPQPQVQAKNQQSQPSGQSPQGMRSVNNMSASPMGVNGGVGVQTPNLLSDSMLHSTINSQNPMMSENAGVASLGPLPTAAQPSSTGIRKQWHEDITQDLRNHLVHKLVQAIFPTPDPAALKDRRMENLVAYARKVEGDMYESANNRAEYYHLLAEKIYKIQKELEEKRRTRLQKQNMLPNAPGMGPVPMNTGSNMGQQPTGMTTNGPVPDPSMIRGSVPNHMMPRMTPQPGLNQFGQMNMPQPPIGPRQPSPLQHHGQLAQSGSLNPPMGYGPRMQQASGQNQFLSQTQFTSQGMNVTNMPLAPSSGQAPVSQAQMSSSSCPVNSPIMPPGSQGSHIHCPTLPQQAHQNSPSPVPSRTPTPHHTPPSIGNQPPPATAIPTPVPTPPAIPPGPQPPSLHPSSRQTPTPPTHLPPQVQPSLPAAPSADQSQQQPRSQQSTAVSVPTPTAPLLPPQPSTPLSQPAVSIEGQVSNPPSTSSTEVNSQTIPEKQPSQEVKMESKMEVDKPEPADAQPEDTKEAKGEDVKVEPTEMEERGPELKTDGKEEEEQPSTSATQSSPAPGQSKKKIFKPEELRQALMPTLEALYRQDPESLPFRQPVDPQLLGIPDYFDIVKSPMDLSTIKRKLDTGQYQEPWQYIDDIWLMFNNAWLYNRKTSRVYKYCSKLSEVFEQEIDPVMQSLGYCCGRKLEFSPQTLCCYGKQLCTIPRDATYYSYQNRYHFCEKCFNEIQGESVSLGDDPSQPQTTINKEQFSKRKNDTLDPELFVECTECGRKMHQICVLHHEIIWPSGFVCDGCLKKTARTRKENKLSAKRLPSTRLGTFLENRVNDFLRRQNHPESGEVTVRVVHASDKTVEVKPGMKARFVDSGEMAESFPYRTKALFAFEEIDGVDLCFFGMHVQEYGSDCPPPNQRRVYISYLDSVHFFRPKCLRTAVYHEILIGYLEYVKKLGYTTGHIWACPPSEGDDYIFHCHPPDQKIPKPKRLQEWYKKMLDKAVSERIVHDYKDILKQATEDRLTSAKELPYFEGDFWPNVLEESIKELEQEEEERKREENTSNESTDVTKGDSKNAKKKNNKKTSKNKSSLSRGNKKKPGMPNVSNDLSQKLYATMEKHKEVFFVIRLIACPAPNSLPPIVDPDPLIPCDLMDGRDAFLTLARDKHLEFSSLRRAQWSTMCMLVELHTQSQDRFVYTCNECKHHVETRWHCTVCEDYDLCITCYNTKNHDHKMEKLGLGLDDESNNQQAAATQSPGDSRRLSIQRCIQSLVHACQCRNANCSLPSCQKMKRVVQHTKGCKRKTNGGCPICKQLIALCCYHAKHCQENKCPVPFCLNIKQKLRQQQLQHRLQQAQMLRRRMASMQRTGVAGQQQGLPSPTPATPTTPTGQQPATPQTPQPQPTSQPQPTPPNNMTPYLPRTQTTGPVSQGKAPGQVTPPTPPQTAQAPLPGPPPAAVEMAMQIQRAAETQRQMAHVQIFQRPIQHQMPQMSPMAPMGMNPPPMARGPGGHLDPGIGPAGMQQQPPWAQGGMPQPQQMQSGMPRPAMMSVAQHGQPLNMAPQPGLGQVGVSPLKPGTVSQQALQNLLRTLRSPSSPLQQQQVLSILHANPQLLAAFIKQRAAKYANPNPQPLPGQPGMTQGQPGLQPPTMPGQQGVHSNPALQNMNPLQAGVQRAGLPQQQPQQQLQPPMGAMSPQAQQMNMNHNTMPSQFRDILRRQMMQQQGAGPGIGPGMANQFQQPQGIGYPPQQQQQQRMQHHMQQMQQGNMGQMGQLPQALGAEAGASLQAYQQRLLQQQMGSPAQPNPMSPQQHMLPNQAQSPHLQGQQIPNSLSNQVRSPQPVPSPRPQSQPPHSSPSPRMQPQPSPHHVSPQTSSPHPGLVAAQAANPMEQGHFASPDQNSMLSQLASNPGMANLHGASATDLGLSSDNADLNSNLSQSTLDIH
Description: Since FM19G11 was capable of affecting the degree of acetylation of histone H3 and therefore the conformation of chromatin, it was evaluated if FM19G11 favored the transfer of acetyl groups to histone H3 or, on the contrary, prevented histone H3 from being deacetylated. Both effects would cause an increase of the degree of acetylation of histone H3. Immunoprecipitation assays were performed with an antibody recognizing acetyltransferase p300 and then assays for measuring the acetyltransferase activity by means of using the kit "HAT Colorimetric Assay" (BioVision) were carried out. This method consists of detecting NADH since peptide acetylation causes the release of the free form of Coenzyme A, which serves as an essential coenzyme for producing NADH.
The protein extracts were previously immunoprecipitated with an anti-p300 antibody and the acetyltransferase activity measured by the detection of NADH. The evaluation of the histone deacetylase (HDAC) activity (Figure 34 B) was carried out with protein extracts of HeLa cells treated with different concentrations of FM19G11. As a positive control, a fixed concentration of TSA (1 µM) was included and extracts of untreated cells were used as a control. The experiments were carried out following the instructions of the Biomol kit for detecting histone deacetylase activity (HDAC Fluorimetric Cellular Activity Assay, Biomol, Cat. No. AK-503). […]

HCT116/p53-/- cells = test: cell cycle distribution by flow cytometry, HCT116/p53-/-; assay type: cell-based, human; conditions: 0.5, 1, 5, 10 µM, 3 or 6 days
From the text: It was investigated if the activation of DDR by FM19G11 caused a delay in the cycle progress through the G1/S phases in HCT116 tumor cells, as has been described for other DNA-damaging agents (.Lim, DS, Kim, ST, Xu, B, Maser, RS, Lin, J, Petrini, JH et al., (2000) ATM phosphorylates p95/nbs1 in an S-phase checkpoint pathway. Nature 404: 613-7.; Jazayeri, A, Falck, J, Lukas, C, Bartek, J, Smith, GC, Lukas, J et al., (2006) ATM- and cell cycle-dependent regulation of ATR in response to DNA double-strand breaks. Nat Cell Biol 8: 37-45; Liu, JS, Kuo, SR, Beerman, TA and Melendy, T, (2003) Induction of DNA damage responses by adozelesin is S phase-specific and dependent on active replication forks. Mol Cancer Ther 2: 41-7; Ranjan, P and Heintz, NH, (2006) S-phase arrest by reactive nitrogen species is bypassed by okadaic acid, an inhibitor of protein phosphatases PP1/PP2A. Free Radic Biol Med 40: 247-59.). The HCT116 p53+/+ and HCT116 p53-/- cells were exposed for 3 or 6 days to the carrier (DMSO) or to FM19G11 (0.5, 1, 5, 10 µM). […] (Figure 24).
A- The HCT116/p53+/+ cells and B-HCT116/p53-/- cells were exposed to different concentrations of FM19G11 (0.5, 1, 5, 10 µM) or carrier for 3 or 6 days to analyze the distribution of cells in the different cell cycle phases by means of flow cytometry. […]

c-FOS = test: selectivity luciferase assay, Hek 293-TRE-LUC; assay type: cell-based; conditions: 0-1 µM, 6 hours
Description: The selectivity assays with the active compound FM19G11 were performed in white 96-well plates using the recombinant strains Hek 293-TRE-LUC and Hek 293-CRE-LUC which represent the transcriptional activity of transcription factors of the AP-1 complex. The luciferase assay for measuring transcriptional activity was performed using the kit Bright-Glo™ Luciferase Assay System (Promega, Inc., Madison, WI), following the instructions supplied by the manufacturer and the Hek 293-TRE-LUC and Hek 293-CRE-LUC lines contain the response elements of transcription factors of the AP-1 complex, specifically of c-FOS and JUNB, respectively. The Hek 293-TRE-LUC and Hek 293-CRE-LUC lines were provided by Dr. Rosa Farrás.

For `Cc1ccc(C(=O)COC(=O)c2cccc(NC(=O)c3ccc([N+](=O)[O-])cc3[N+](=O)[O-])c2)cc1` [FM19G11, 2-oxo-2-(p-tolyl)ethyl 3-((2,4-dinitro)benzamido)benzoate], the “growth of colonies in semisolid agar” value (HT29) was “significant decrease”, the induced mortality ([1]; 0.5 mM microinjected into the chorionic space, n=15) was 20% and the “viability of the embryos” value ([1]; 10 microM and 50 microM in the well) was “does not affect the viability”. For the same compound, the lethality ([1]; 10 microM and 50 microM in the well, blastula and neurula stages) was “no significant lethality”, the “acetyltransferase activity of the immunoprecipitated fraction” value (acetyltransferase p300) was “increase of the acetyltransferase activity” and the “G1/S phase cycle arrest” value (HCT116/p53-/- cells) was “did not cause a G1/S phase cycle blocking”. The “transcriptional levels of Hek 293-TRE-LUC” value (c-FOS) was “not affected in any case”.
